The source of these data is US11441119B2, “Culture media comprising n-Acyl-X-glutamine dipeptides” (Evonik Operations GmbH, priority 2017, dated 2022).

Structures are written as SMILES. Residues, ends and D or L forms follow the SMILES beside them.

Experiment [1] concerns Chinese Hamster Ovary (CHO) cells (Subclone DG44). Nature of the experiment: Batch cultivation of CHO DG44 cells in glutamine-free PowerCHO-2 CD medium supplemented with glutamine sources: growth and productivity. The experiment is classed as cell-based. The settings on record: for Relative cell-specific productivity: relative titer/IVCD relative to 100% free glutamine; for Relative time-related productivity: relative titer/cultivation time relative to free glutamine; for Relative titer / Cultivation time until 80% viability / Integrated viable cell density (IVCD): total glutamine 8 mM; for Relative titer: relative to titer of 100% free glutamine; for Cultivation time until 80% viability / Integrated viable cell density (IVCD): third passage; for Integrated viable cell density (IVCD): until viability below 80%; for Performance in batch cultivation, in words (titer, productivities): comparison of the supplements of Tables 1 and 2. As for the experimental part: Acetyl-A-Q was mixed with free glutamine or A-Q in molar ratios between 0 and 100%. The mixtures were added to a glutamine-free medium (PowerCHO-2 CD, Lonza AG, Visp, Switzerland) to obtain a total glutamine concentration of 8 mM in the final medium. Growth and productivity were measured using Chinese Hamster Ovary (CHO) cells (Subclone DG44; Life Technologies Cooperation, Carlsbad, USA). Cultivation was continued up to the point where the viability of the culture dropped below 80%. Data from the third passage was used. All titer-related information is given relative to the titer of 100% free glutamine. Accordingly, the relative cell-specific productivity was obtained by first dividing the relative titer by the integrated viable cell density (IVCD), then dividing this number by the titer/IVCD ratio for 100% free glutamine. The relative time-specific productivity was obtained by dividing the relative titer by the cultivation duration until the sampling, then dividing this number by the titer/cultivation time ratio for free glutamine. In a second set of experiments within the same experimental campaign, acetyl-A-Q was mixed with A-Q and tested under the same conditions as described above. The 100% points for acetyl-A-Q as well as the free glutamine reference are identical to the first example.

For experiment [2] the test system is unchanged. Nature of the experiment: Fed-batch cultivation of CHO DG44 cells with glutamine sources in basal medium and feed supplement: growth and productivity. The experiment is classed as cell-based. How it is done:
Free glutamine, A-Q or Acetyl-A-Q were added to a glutamine-free medium (PowerCHO-2 CD, Lonza AG, Visp, Switzerland) to obtain a total glutamine concentration of 8 mM in the final medium.
In addition, these substances as well as a 75% mixture of acetyl-A-Q and A-Q were added to a glutamine-free formulation of a commercial feed supplement (CHOMACS Feed Supplement, Miltenyi Biotech, Germany) to yield a glutamine concentration of 5.5 g/L. Growth and productivity were measured using Chinese Hamster Ovary (CHO) cells (Subclone DG44; Life Technologies Cooperation, Carlsbad, USA).The results are summarized in Table 3. All titer-related information is given relative to the titer obtained by adding free glutamine to basal medium and feed. Accordingly, the relative cell-specific productivity was obtained by first dividing the relative titer by the integrated viable cell density (IVCD), then dividing this number by the titer/IVCD ratio for 100% free glutamine. The relative time-specific productivity was obtained by dividing the relative titer by the cultivation duration until the sampling, then dividing this number by the titer/cultivation time ratio for free glutamine.

Where [3] appears, read: basal medium source/feed source, 8 mM glutamine in medium, 5.5 g/L in feed.

For the compound `C[C@H](N)C(=O)N[C@@H](CCC(N)=O)C(=O)O` [100% AQ, alanyl-glutamine] (H-Ala-Gln-OH), in experiment [1] (acetyl-A-Q mixed with A-Q), the Relative cell-specific productivity worked out at 75%, the Relative time-related productivity was found to be 102%, the Relative titer stood at 1.10 and the “Cultivation time until 80% viability” value is on record as 13.9. In addition, in experiment [1] (acetyl-A-Q mixed with A-Q), the “Integrated viable cell density (IVCD)” value turned out to be 47.1. In addition, the “Performance in batch cultivation, in words (titer, productivities)” value in experiment [1] is “performs at a lower level in all relevant categories”.

As to `NC(=O)CC[C@H](N)C(=O)O` [100% Q, L-glutamine], in experiment [1] (acetyl-A-Q mixed with A-Q), the Relative cell-specific productivity is listed as 100%, the Relative time-related productivity is listed as 100%, the Relative titer amounted to 1.00 and the “Cultivation time until 80% viability” value worked out at 12.9. Moreover, the “Integrated viable cell density (IVCD)” value in experiment [1] (acetyl-A-Q mixed with A-Q) was found to be 32.0. Also, in experiment [1] (acetyl-A-Q mixed with free Q), the Relative cell-specific productivity was found to be 100%, the Relative time-related productivity amounted to 100%, the Relative titer came out at 1.00 and the “Cultivation time until 80% viability” value was 12.9. For the same compound, the “Integrated viable cell density (IVCD)” value in experiment [1] (acetyl-A-Q mixed with free Q) was 32.0.

Regarding `CC(=O)N[C@@H](C)C(=O)N[C@@H](CCC(N)=O)C(=O)O` [Acetyl A-Q/acetyl-A-Q] (Ac-Ala-Gln-OH), in experiment [2] (setting [3]), the “Cultivation time until 80% viability” value worked out at 15.0 and the “Integrated viable cell density (IVCD)” value was 8.2. Also, in experiment [2] (relative titer/IVCD relative to 100% free glutamine), the Relative cell-specific productivity amounted to 145%. The Relative time-related productivity in experiment [2] (relative titer/cultivation time relative to free glutamine) came out at 18%. Moreover, the Relative titer in experiment [2] (relative to titer with free glutamine in basal medium and feed) was found to be 0.2.

Regarding `CC(=O)N[C@@H](C)C(=O)N[C@@H](CCC(N)=O)C(=O)O` [100% acetyl-A-Q, acetyl-A-Q] (Ac-Ala-Gln-OH), in experiment [1] (acetyl-A-Q mixed with A-Q), the Relative cell-specific productivity amounted to 434%, the Relative time-related productivity was found to be 99%, the Relative titer was determined as 1.37 and the “Cultivation time until 80% viability” value is on record as 17.9. Also, the “Integrated viable cell density (IVCD)” value in experiment [1] (acetyl-A-Q mixed with A-Q) is reported as 10.1. In addition, in experiment [1] (acetyl-A-Q mixed with free Q), the Relative cell-specific productivity is recorded as 434%, the Relative time-related productivity is 99%, the Relative titer worked out at 1.37 and the “Cultivation time until 80% viability” value is listed as 17.9. The “Integrated viable cell density (IVCD)” value in experiment [1] (acetyl-A-Q mixed with free Q) is 10.1. Moreover, the “Performance in batch cultivation, in words (titer, productivities)” value in experiment [1] is “best values for relative titer and cell-specific productivity”. Moreover, the “Performance in fed-batch cultivation, in words (productivity, cell density, titer)” value in experiment [2] (comparison of the combinations of Table 3) is “very high cell-specific productivities, but very low cell density”.
